# Test results taken from patent publication US6667387B1, “HCV core peptides” (priority 1992, dated 2003).
# Ends that are not written are not given here.
# Columns and labels:
# Format in all cases: binding, human
# [1] = test system: antibodies in antisera from HIV-1 infected persons; assay: ELISA with HIV-1 antibody-positive sera (biotinylated peptides on streptavidin- or avidin-coated plates, unbiotinylated peptides coated directly); details: for number borderline / number negative / number positive / percent borderline / percent negative / percent positive: Table 16
# Protocol: (§1) Where peptides were to be coated directly, stock solutions of the peptides were diluted in sodium carbonate buffer, pH 9.6 and used to coat polystyrene microtiter plates at a peptide concentration of 2 to 5 micrograms per milliliter for 1 hour at 37° C.
# (§2) In cases where biotinylated peptides were to be evaluated, plates were first coated with streptavidin in sodium carbonate buffer, pH 9.6 at a concentration of 3 micrograms per milliliter for 1 hour at 37° C. The plates were then washed to remove excess, unbound protein. A working solution of the biotinylated peptide at 1 microgram per milliliter in sodium carbonate buffer was then added to the wells of the microtiter plate and incubated for 1 hours at 37° C.
# (§3) Once the plates had been coated with antigen, any remaining free binding sites on the plastic were blocked with casein. After washing, a dilution of the appropriate antisera, usually 1:100, was added to the wells of the plates and incubated for 1 hour at 37° C.
# (§4) After washing to remove unbound material, specific antibody binding was detected by incubating the plates with goat anti-human immunoglobulin antibodies conjugated to the enzyme horseradish peroxidase. Following removal of unbound conjugate by washing, a solution containing H2O2 and 3,3′,5,5′-tetramethylbenzidine was added.
# (§5) Reactions were stopped after a suitable interval by addition of sulfuric acid. […] Absorbance measurements were made at a wavelength of 450 nanometers and all data are expressed as an optical density value at this wavelength.
# Experiments were performed to evaluate antibody recognition of short, 10 amino acid-long, N-acetylated peptides corresponding to other contained within the transmembrane proteins of HIV-1 and HIV-2. […] The peptides used for the comparison were as follows:
# Antibody binding to these peptides was compared to antibody binding to the unibiotinylated peptides which were coated directly onto microtiter plates.
# In order to evaluate antibody recognition of these two peptides, the peptides were bound individually to streptavidin-coated microtiter plates and tested using a panel of antisera from HIV-1 seropositive donors.
# (§6) To determine how well biotinylated peptides would function in a mixture when bound to streptavidin- or avidin-coated plates, two mixtures were made of the N-terminally biotinylated versions of the HIV-1 peptides TM-HIV-1 (hereabove referred to as 1a.1) and V3-nm (hereabove referred to as 1b.4), the HIV-2 peptide TM-HIV-2 (hereabove referred to as 2a), and the hepatitis C virus peptides II, IX, and XVIII. Mixture A contained each of the six biotinylated peptides at a concentration of 1 microgram per milliliter (6 micrograms per milliliter peptide, total) while in mixture B, each peptide was present at a concentration of 0.1 microgram per milliliter (0.6 microgram per milliliter peptide, total). The individual peptides were coated at a concentration of 1 microgram per milliliter. For purposes of comparison, mixtures A and B were also coated directly onto the wells of a microtiter plate. Samples from HIV-1, HIV-2, and HCV-seropositive donors were tested and compared to sera from seronegative blood donors. A cut-off absorbance value of 0.250 was used to determine whether a reaction was positive or negative. Absorbance values equal or greater than 0.250 were considered positive while absorbance values below this value were considered negative.
# A spacer consisting of two glycine residues was added to the amino terminus.
# [2] = test system: antibodies in antisera from HIV-2 infected persons; assay: ELISA with HIV-2 antibody-positive sera (biotinylated peptides on streptavidin- or avidin-coated plates, unbiotinylated peptides coated directly); details: for optical density (450 nm): Table 1; for number borderline / number negative / number positive / percent borderline / percent negative / percent positive: Table 17, HIV-2 positive sera, 21 tested
# Protocol: as §1, §2, §3, §4, §5
# The biotinylated peptides were loaded onto microtiter plates which had been coated with streptavidin. Antibody binding to these peptides was compared to antibody binding to the unibiotinylated peptides which were coated directly onto microtiter plates. It is evident that the biotinylated peptides from the HIV-1 or HIV-2 transmembrane proteins bound to streptavidin are recognized very well by antisera from HIV-1 or HIV-2 infected persons respectively. This is in contrast to the unbiotinylated versions of these peptides coated directly onto the polystyrene plates.
# as §6
# Two glycine residues were added at the N-terminus of each peptide to serve as a spacer and a biotin was coupled to the α-amino group of the resulting N-terminal glycine. The peptides were bound to streptavidin and coated in the wells of microwell plates. HIV-2 antibody-positive sera were used to evaluate these two peptides in an ELISA.
# [3] = ELISA with seronegative / negative control sera (specificity)
# Outline: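 Specificity readout is OD at 450 nm (HRP goat anti-human Ig, TMB/H2O2, sulfuric acid stop), with ≥0.250 counted positive. Seronegative donor sera (typically 1:100, 1 h, 37° C) were applied to casein-blocked wells coated with peptide directly or via streptavidin capture of biotinylated peptide.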
# [4] = test system: antibodies in sera from HCV-seropositive donors; assay: ELISA with HCV antibody-positive sera (biotinylated peptides on streptavidin- or avidin-coated plates, unbiotinylated peptides coated directly); details: for optical density (450 nm): Table 4E, 20-fold dilution; for PEPTIDE ELISA (O.D.): Table 12, biotinylated 20-mers
# Outline: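 Read-out is OD at 450 nm after HRP goat anti-human Ig and TMB development, following 1 h at 37° C. with seropositive or negative sera diluted 1:100 (or 20-fold). Antigen was either unbiotinylated peptide adsorbed on plastic (pH 9.6 carbonate, 2–5 or 3 μg/ml) or biotinylated peptide at 1 μg/ml captured on streptavidin-coated wells, with casein blocking.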
# [5] = Table 1, serum 0724, HIV-1 positive
# [6] = Table 1, serum PL, HIV-1 positive
# [7] = Table 1, serum VE, HIV-1 positive
# [8] = Table 1, serum YEMO, HIV-1 positive
# [9] = Table 1, serum mm, HIV-1 positive
# [10] = Table 1, serum 180, seronegative donor
# [11] = Table 1, serum 194, seronegative donor
# [12] = Table 1, serum 195, seronegative donor
# [13] = Table 1, serum 204, seronegative donor
substance,measurement,setting,value
"Ac-Ile-Trp-Gly-Cys-Ser-Gly-Lys-Leu-Ile-Cys-NH2 (Ac-IWGCSGKLIC-NH2; cysteine pairing not given here) [TM-HIV-1, unbiotinylated N-acetylated decamer of the HIV-1 transmembrane protein]",optical density (450 nm),[1]; [5],0.174
same,optical density (450 nm),[1]; [6],0.000
same,optical density (450 nm),[1]; [7],0.052
same,optical density (450 nm),[1]; [8],0.162
same,optical density (450 nm),[1]; [9],0.051
same,optical density (450 nm),"[2]; serum 53-3, HIV-2 positive",0.000
same,optical density (450 nm),"[2]; serum 1400, HIV-2 positive",0.000
same,optical density (450 nm),"[2]; serum AG, HIV-2 positive",0.000
same,optical density (450 nm),[3]; [10],0.000
same,optical density (450 nm),[3]; [11],0.000
same,optical density (450 nm),[3]; [12],0.000
same,optical density (450 nm),[3]; [13],0.000
"Ac-Ser-Trp-Gly-Cys-Ala-Phe-Arg-Gln-Val-Cys-NH2 (Ac-SWGCAFRQVC-NH2; cysteine pairing not given here) [TM-HIV-2, unbiotinylated N-acetylated decamer of the HIV-2 transmembrane protein]",optical density (450 nm),[1]; [5],0.000
same,optical density (450 nm),[1]; [6],0.000
same,optical density (450 nm),[1]; [7],0.000
same,optical density (450 nm),[1]; [8],0.000
same,optical density (450 nm),[1]; [9],0.000
same,optical density (450 nm),"[2]; serum 53-3, HIV-2 positive",0.000
same,optical density (450 nm),"[2]; serum 1400, HIV-2 positive",0.000
same,optical density (450 nm),"[2]; serum AG, HIV-2 positive",0.000
same,optical density (450 nm),[3]; [10],0.000
same,optical density (450 nm),[3]; [11],0.000
same,optical density (450 nm),[3]; [12],0.000
same,optical density (450 nm),[3]; [13],0.000
Ac-Tyr-Asn-Lys-Arg-Lys-Arg-Ile-His-Ile-Gly-Pro-Gly-Arg-Ala-Phe-Tyr-Thr-Thr-Lys-Asn-Ile-Ile-Gly-NH2 (Ac-YNKRKRIHIGPGRAFYTTKNIIG-NH2) [Peptide V3-mn],optical density (450 nm),"[1]; Table 2, sample 266",0.951
same,optical density (450 nm),"[1]; Table 2, sample 3990",1.442
same,optical density (450 nm),"[1]; Table 2, sample 4436",0.388
same,optical density (450 nm),"[1]; Table 2, sample 4438",0.736
same,optical density (450 nm),"[1]; Table 2, sample DV",1.314
same,optical density (450 nm),"[1]; Table 2, sample MM",0.791
same,optical density (450 nm),"[1]; Table 2, sample OOST 4",1.106
same,optical density (450 nm),"[1]; Table 2, sample OOST 6",1.025
same,optical density (450 nm),"[1]; Table 2, sample OOST 8",1 389
same,optical density (450 nm),"[1]; Table 2, sample PL",0.531
same,optical density (450 nm),"[1]; Table 2, sample VE",1.717
same,optical density (450 nm),"[1]; Table 2, sample YS",1.442
same,optical density (450 nm),"[3]; Table 2, negative control",0.063
"Asn Lys Thr Val Leu Pro Val Thr Ile Met Ser Gly Leu Val Phe His Ser Gln Pro Ile Asn Asp (NKTVLPVTIMSGLVFHSQPIND; printed: Asn Lys Thr Val Leu Pro Val Thr Ile Met Ser Gly Leu Val Phe His Ser Gln Pro Ile Asn Asp) [Peptide V2-239, HIV-2/SIV mm 239 V3; two glycine residues at the N-terminus and biotin]",number borderline,[2],2
same,number negative,[2],0
same,number positive,[2],19
same,percent borderline,[2],9.5%
same,percent negative,[2],0%
same,percent positive,[2],90.5%
"Asn Lys Thr Val Val Pro Ile Thr Leu Met Ser Gly Leu Val Phe His Ser Gln Pro Ile Asn Lys (NKTVVPITLMSGLVFHSQPINK; printed: Asn Lys Thr Val Val Pro Ile Thr Leu Met Ser Gly Leu Val Phe His Ser Gln Pro Ile Asn Lys) [Peptide V3-GB12, HIV-2 V3; two glycine residues at the N-terminus and biotin]",number borderline,[2],0
same,number negative,[2],0
same,number positive,[2],21
same,percent borderline,[2],0%
same,percent negative,[2],0%
same,percent positive,[2],100%
"NNTRRGIHMGWGRTFYATGEIIG [Peptide V3-368, two glycine residues at the amino terminus, N-terminal glycine biotinylated]",number borderline,"[1]; African sera, 45 tested",9
same,number negative,"[1]; African sera, 45 tested",31
same,number positive,"[1]; African sera, 45 tested",5
same,percent borderline,"[1]; African sera, 45 tested",20%
same,percent negative,"[1]; African sera, 45 tested",69%
same,percent positive,"[1]; African sera, 45 tested",11%
same,number borderline,"[1]; Brazilian sera, 36 tested",15
same,number negative,"[1]; Brazilian sera, 36 tested",5
same,number positive,"[1]; Brazilian sera, 36 tested",16
same,percent borderline,"[1]; Brazilian sera, 36 tested",41.7%
same,percent negative,"[1]; Brazilian sera, 36 tested",13.9%
same,percent positive,"[1]; Brazilian sera, 36 tested",44.4%
same,number borderline,"[1]; European sera, 36 tested",20
same,number negative,"[1]; European sera, 36 tested",12
same,number positive,"[1]; European sera, 36 tested",4
same,percent borderline,"[1]; European sera, 36 tested",56%
same,percent negative,"[1]; European sera, 36 tested",33%
same,percent positive,"[1]; European sera, 36 tested",11%
TRKTSERSQPRGRRQPIPKV,optical density (450 nm),[4]; serum 8272,1.220
same,optical density (450 nm),[4]; serum 8273,1.026
same,optical density (450 nm),[4]; serum 8274,2.662
same,optical density (450 nm),[4]; serum 8275,1.724
same,optical density (450 nm),[4]; serum 8276,2.616
same,optical density (450 nm),[4]; serum 8277,1.796
same,optical density (450 nm),[4]; serum 8278,1.746
same,optical density (450 nm),[4]; serum 8284,0.757
same,PEPTIDE ELISA (O.D.),[4]; serum 0843,1.378
same,PEPTIDE ELISA (O.D.),[4]; serum 8240,2.021
same,PEPTIDE ELISA (O.D.),[4]; serum 8241,0.274
same,PEPTIDE ELISA (O.D.),[4]; serum 8242,2.315
same,PEPTIDE ELISA (O.D.),[4]; serum 8332,1.455
same,PEPTIDE ELISA (O.D.),[4]; serum 8339,2.598
same,PEPTIDE ELISA (O.D.),[4]; serum 8350,0.685
same,PEPTIDE ELISA (O.D.),[4]; serum 8377,0.076
same,PEPTIDE ELISA (O.D.),[4]; serum 8378,1.228
same,PEPTIDE ELISA (O.D.),[4]; serum 8388,2.162
same,optical density (450 nm),"[3]; Table 4E, negative serum",0.070
